Experimental data reported in ChEMBL document CHEMBL4024735, “Brefeldin A enhances docetaxel-induced growth inhibition and apoptosis in prostate cancer cells in monolayer and 3D cultures” (Bioorg Med Chem Lett, 2017).
Calls of active or inactive are those of the source. The calls are words filed in the database; no cut-off is given here.

Tests used:
[1] = Drug uptake in CD2F1 mouse plasma at 26.3 mg/kg administered for 1 min via intravenous injection measured 60 mins post dose; type: ADME, organism-based
RWPE-1 [2] = assay: Potentiation of 2 nM docetaxel-induced cytotoxicity against human RWPE1 cells assessed as decrease in cell viability at 50 nM after 72 hrs by trypan blue exclusion assay; type: cell-based; details: rwpe-1, 72 h, 0.05 µM
PC-3 [3] = assay: Cytotoxicity against 3D culture of human PC3 cells assessed as size of tissue like structure at 50 nM administered once every alternative day for 10 days measured on post last dose by matrigel based microscopic method relative to control; type: functional
LNCaP [4] = assay: Cytotoxicity against human LNCAP cells assessed as decrease in cell viability after 72 hrs by trypan blue exclusion assay; type: functional, cell-based
RWPE-1 [5] = assay: Potentiation of 3 nM docetaxel-induced cytotoxicity against human RWPE1 cells assessed as decrease in cell viability at 50 nM after 72 hrs by trypan blue exclusion assay; type: cell-based; details: rwpe-1, 72 h, 0.05 µM
[6] = molecular target: Mitogen-activated protein kinase 3 (Homo sapiens) (UniProt P27361); assay: Inhibition of Erk1 phosphorylation in human PC3 cells at 50 nM after 24 hrs by Western blot method relative to control; type: cell-based
[7] = molecular target: RAC-alpha serine/threonine-protein kinase (Homo sapiens) (UniProt P31749); assay: Potentiation of 2 nM docetaxel-induced inhibition of Akt phosphorylation in human PC3 cells at 50 nM after 24 hrs by Western blot method relative to control; type: cell-based
PC-3 [8] = assay: Induction of apoptosis in human PC3 cells at 50 nM after 72 hrs by propidium iodide staining based fluorescence microscopy (reference value: 1.9 +/- 0.8%); type: functional
[9] = molecular target: RAC-alpha serine/threonine-protein kinase (Homo sapiens) (UniProt P31749); assay: Inhibition of Akt phosphorylation in human PC3 cells at 50 nM after 24 hrs by Western blot method relative to control; type: cell-based
LNCaP [10] = assay: Induction of apoptosis in human LNCAP cells assessed as morphological changes by propidium iodide staining based fluorescence microscopy; type: functional, cell-based
PC-3 [11] = assay: Cytotoxicity against human PC3 cells assessed as cell viability at 50 nM after 72 hrs by trypan blue exclusion assay relative to control; type: functional; details: PC-3, 72 h, read-out: Activity
PC-3 [12] = assay: Potentiation of 2 nM docetaxel-induced apoptosis in human PC3 cells at 50 nM after 72 hrs by propidium iodide staining based fluorescence microscopy (reference value: 1.9 +/- 0.8%); type: functional
PC-3 [13] = assay: Potentiation of 3 nM docetaxel-induced cytotoxicity against human PC3 cells assessed as decrease in cell viability at 50 nM after 72 hrs by trypan blue exclusion assay; type: functional, cell-based
PC-3 [14] = assay: Potentiation of 2 nM docetaxel-induced cytotoxicity against human PC3 cells assessed as cell viability at 50 nM after 72 hrs by trypan blue exclusion assay relative to control; type: functional
[15] = molecular target: Mitogen-activated protein kinase 1 (Homo sapiens) (UniProt P28482); assay: Inhibition of Erk2 phosphorylation in human PC3 cells at 50 nM after 24 hrs by Western blot method relative to control; type: cell-based
[16] = Selectivity ratio for potentiation of 2 nM docetaxel-induced cytotoxicity against human PC3 cells to potentiation of 2 nM docetaxel-induced cytotoxicity against human RWPE1 cells
PC-3 [17] = assay: Induction of apoptosis in human PC3 cells assessed as Bcl2 level at 50 nM after 24 hrs by Western blot method relative to control; type: functional
PC-3 [18] = assay: Induction of apoptosis in human PC3 cells assessed as morphological changes by propidium iodide staining based fluorescence microscopy; type: functional, cell-based
PC-3 [19] = assay: Cytotoxicity against human PC3 cells assessed as decrease in cell viability after 72 hrs by trypan blue exclusion assay; type: functional, cell-based
RWPE-1 [20] = assay: Cytotoxicity against human RWPE1 cells at >=100 nM after 72 hrs by tryphan blue exclusion assay; type: cell-based; details: rwpe-1, 72 h
PC-3 [21] = assay: Potentiation of 2 nM docetaxel-induced apoptosis in human PC3 cells assessed as Bcl2 level at 50 nM after 24 hrs by Western blot method relative to control; type: functional
[22] = molecular target: Mitogen-activated protein kinase 3 (Homo sapiens) (UniProt P27361); assay: Potentiation of 2 nM docetaxel-induced inhibition of Erk1 phosphorylation in human PC3 cells at 50 nM after 24 hrs by Western blot method relative to control; type: cell-based
PC-3 [23] = assay: Potentiation of 2 nM docetaxel-induced cytotoxicity against 3D culture of human PC3 cells assessed as size of tissue like structure at 50 nM administered once every alternative day for 10 days measured on post last dose by matrigel based microscopic method relative to control; type: functional
[24] = molecular target: Mitogen-activated protein kinase 1 (Homo sapiens) (UniProt P28482); assay: Potentiation of 2 nM docetaxel-induced inhibition of Erk2 phosphorylation in human PC3 cells at 50 nM after 24 hrs by Western blot method relative to control; type: cell-based
[25] = molecular target: Mitogen-activated protein kinase 1 (Homo sapiens) (UniProt P28482); assay: Inhibition of Erk2 phosphorylation in human PC3 cells at 2 nM after 24 hrs by Western blot method relative to control; type: cell-based
PC-3 [26] = assay: Cytotoxicity against human PC3 cells assessed as cell viability at 2 nM after 72 hrs by trypan blue exclusion assay relative to control; type: functional; details: PC-3, 72 h, read-out: Activity
PC-3 [27] = assay: Induction of apoptosis in human PC3 cells at 2 nM after 72 hrs by propidium iodide staining based fluorescence microscopy (reference value: 1.9 +/- 0.8%); type: functional
PC-3 [28] = assay: Cytotoxicity against human PC3 cells; type: functional, cell-based
[29] = molecular target: Mitogen-activated protein kinase 3 (Homo sapiens) (UniProt P27361); assay: Inhibition of Erk1 phosphorylation in human PC3 cells at 2 nM after 24 hrs by Western blot method relative to control; type: cell-based
[30] = molecular target: RAC-alpha serine/threonine-protein kinase (Homo sapiens) (UniProt P31749); assay: Inhibition of Akt phosphorylation in human PC3 cells at 2 nM after 24 hrs by Western blot method relative to control; type: cell-based
[31] = Drug uptake in patient plasma at 20 mg/m2, iv administered for 1 hr as infusion measured 72 hrs post dose; type: ADME, organism-based; details: human
Plasma = assay: Drug uptake in cancer patient plasma at 35 mg/m2, iv administered once every week via infusion measured on day 8 by HPLC-TMS; type: ADME, organism-based; details: human, in vivo
PC-3 [32] = assay: Cytotoxicity against 3D cultures of human PC3 cells assessed as size of tissue-like structure at 2 nM administered once every alternative day for 10 days measured on post last dose by matrigel based microscopic method relative to control; type: functional
RWPE-1 [33] = assay: Cytotoxicity against human RWPE1 cells at 5 to 10 nM after 72 hrs by trypan blue exclusion assay; type: cell-based; details: rwpe-1, 72 h, 0.01 µM
PC-3 [34] = assay: Induction of apoptosis in human PC3 cells assessed as Bcl2 level at 2 nM after 24 hrs by Western blot method relative to control; type: functional

Chain of Mitogen-activated protein kinase 1 (Homo sapiens) (P28482 whole entry): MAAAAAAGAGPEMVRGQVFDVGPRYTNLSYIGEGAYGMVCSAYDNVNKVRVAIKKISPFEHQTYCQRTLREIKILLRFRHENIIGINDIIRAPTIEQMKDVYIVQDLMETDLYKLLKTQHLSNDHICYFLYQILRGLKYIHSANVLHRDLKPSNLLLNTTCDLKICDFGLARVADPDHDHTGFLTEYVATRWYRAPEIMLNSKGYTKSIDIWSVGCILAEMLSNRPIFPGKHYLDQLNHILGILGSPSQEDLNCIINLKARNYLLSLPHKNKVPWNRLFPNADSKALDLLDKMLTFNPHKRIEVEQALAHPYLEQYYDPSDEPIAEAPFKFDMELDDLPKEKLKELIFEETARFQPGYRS
Chain of Mitogen-activated protein kinase 3 (Homo sapiens) (P27361 whole entry): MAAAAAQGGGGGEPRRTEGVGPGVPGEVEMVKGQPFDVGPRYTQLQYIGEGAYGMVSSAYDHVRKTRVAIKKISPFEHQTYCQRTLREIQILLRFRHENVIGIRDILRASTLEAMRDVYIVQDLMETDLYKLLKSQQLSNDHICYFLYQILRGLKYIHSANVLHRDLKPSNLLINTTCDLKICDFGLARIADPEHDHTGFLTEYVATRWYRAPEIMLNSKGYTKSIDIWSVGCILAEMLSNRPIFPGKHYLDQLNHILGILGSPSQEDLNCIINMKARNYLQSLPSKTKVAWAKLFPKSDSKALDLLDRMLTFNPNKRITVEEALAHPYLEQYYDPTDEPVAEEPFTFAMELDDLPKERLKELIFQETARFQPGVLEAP
Chain of RAC-alpha serine/threonine-protein kinase (Homo sapiens) (P31749 whole entry, the tested form may be a part): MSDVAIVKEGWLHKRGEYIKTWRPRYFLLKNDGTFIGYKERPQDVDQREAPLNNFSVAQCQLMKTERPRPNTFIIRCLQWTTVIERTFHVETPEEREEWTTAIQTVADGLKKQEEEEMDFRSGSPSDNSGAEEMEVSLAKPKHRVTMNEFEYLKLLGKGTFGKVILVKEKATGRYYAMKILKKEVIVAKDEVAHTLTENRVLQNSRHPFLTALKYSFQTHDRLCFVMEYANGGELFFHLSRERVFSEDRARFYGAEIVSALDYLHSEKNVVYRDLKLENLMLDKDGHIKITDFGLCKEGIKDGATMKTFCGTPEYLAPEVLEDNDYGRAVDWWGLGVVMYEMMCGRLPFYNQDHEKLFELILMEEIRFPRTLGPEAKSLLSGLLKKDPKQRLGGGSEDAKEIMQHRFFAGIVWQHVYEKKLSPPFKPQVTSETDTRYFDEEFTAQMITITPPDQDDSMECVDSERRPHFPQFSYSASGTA

C[C@H]1CCC/C=C/[C@@H]2C[C@H](O)C[C@H]2[C@H](O)/C=C/C(=O)O1 [BREFELDIN A]
concentration at 1 h [1]: 700 nM | Activity (RWPE-1 [2]): Toxic | Activity (PC-3 [3]): 79.3% | Activity (LNCaP [4]): Dose-dependent effect | Activity (RWPE-1 [5]): Toxic | fold change (FC) [6]: 0.99 | fold change (FC) [7]: 0.97 | Activity (PC-3 [8]): 18% | fold change (FC) [9]: 0.99 | Activity (LNCaP [10]): Dose-dependent effect | viability at 0.05 µM (PC-3 [11]): 83.4% | Activity (PC-3 [12]): 51.2% | Activity (PC-3 [13]): Active | Activity (PC-3 [14]): 48.4% | fold change (FC) [15]: 0.97 | Selectivity ratio [16]: 4 | fold change (FC) (PC-3 [17]): 0.99 | Activity (PC-3 [18]): Dose-dependent effect | Activity (PC-3 [19]): Dose-dependent effect | Activity (RWPE-1 [20]): Toxic | fold change (FC) (PC-3 [21]): 0.32 | fold change (FC) [22]: 0.93 | Activity (PC-3 [23]): 38.8% | fold change (FC) [24]: 0.96

CC(=O)O[C@@]12CO[C@@H]1C[C@H](O)[C@@]1(C)C(=O)[C@H](O)C3=C(C)[C@@H](OC(=O)[C@H](O)[C@@H](NC(=O)OC(C)(C)C)c4ccccc4)C[C@@](O)([C@@H](OC(=O)c4ccccc4)[C@H]21)C3(C)C [DOCETAXEL ANHYDROUS]
Activity (RWPE-1 [2]): Toxic | Activity (LNCaP [4]): Dose-dependent effect | fold change (FC) [25]: 0.96 | viability at 0.002 µM (PC-3 [26]): 86.7% | Activity (PC-3 [27]): 14.5% | IC50 (PC-3 [28]): 5 to 24 nM | fold change (FC) [29]: 0.95 | fold change (FC) [30]: 1.01 | Activity (LNCaP [10]): Dose-dependent effect | Activity (PC-3 [13]): Active | concentration at 72 h [31]: 2.8 nM | Activity (PC-3 [18]): Dose-dependent effect | Activity (PC-3 [19]): Dose-dependent effect | IC50 (PC-3 [19]; PC-3, 72 h): 8 nM | concentration (Plasma): 1.79 nM | Activity (PC-3 [32]): 83.1% | Activity (RWPE-1 [33]): Toxic | fold change (FC) (PC-3 [34]): 0.71
